For 13 compounds, IC50 and Ki results are on record in ChEMBL document CHEMBL1909046, “DrugMatrix in vitro pharmacology data”.

In assay [1] the target is T1, C-X-C chemokine receptor type 1 (Homo sapiens, UniProt P25024). Also: in other assays of this panel Not Active means under 50% inhibition at 10 µM.
T1 sequence (P25024 whole entry): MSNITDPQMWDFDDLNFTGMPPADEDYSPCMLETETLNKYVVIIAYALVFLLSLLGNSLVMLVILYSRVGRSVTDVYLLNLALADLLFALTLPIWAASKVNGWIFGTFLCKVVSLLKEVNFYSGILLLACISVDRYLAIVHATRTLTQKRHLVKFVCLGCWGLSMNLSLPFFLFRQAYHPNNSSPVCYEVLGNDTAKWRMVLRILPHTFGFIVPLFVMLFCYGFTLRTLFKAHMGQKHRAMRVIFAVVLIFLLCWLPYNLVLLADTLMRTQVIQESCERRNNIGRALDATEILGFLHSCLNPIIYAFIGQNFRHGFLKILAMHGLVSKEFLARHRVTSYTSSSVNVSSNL

Assay [2] is described as follows: DRUGMATRIX: Glutamate, NMDA, Phencyclidine radioligand binding (ligand: [3H] TCP). The following applies: Not Active = under 50% inhibition at 10 µM. It is filed as cell membranes, Rattus norvegicus, Wistar, Cerebral cortex, Membrane.
The target of assay [3] is T2, Alpha-1D adrenergic receptor (Homo sapiens, UniProt P25100). Also: in other assays of this panel Not Active means under 50% inhibition at 10 µM.
T2 sequence (P25100 whole entry): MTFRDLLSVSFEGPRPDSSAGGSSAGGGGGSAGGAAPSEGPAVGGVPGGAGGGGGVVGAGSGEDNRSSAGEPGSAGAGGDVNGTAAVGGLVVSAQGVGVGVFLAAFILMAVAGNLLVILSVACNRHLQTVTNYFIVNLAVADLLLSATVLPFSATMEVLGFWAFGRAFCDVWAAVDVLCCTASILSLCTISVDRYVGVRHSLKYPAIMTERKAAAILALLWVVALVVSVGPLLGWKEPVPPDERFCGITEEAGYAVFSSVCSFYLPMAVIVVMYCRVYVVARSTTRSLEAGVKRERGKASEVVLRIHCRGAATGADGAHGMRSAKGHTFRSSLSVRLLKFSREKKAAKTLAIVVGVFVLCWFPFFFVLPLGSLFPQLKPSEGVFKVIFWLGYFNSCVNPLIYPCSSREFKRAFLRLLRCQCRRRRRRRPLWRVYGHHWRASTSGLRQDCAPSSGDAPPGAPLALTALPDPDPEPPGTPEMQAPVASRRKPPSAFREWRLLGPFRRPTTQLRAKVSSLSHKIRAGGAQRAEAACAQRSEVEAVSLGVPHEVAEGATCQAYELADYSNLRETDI
Format: cell membranes, HEK293, Membrane. Particulars: for Ki: read-out: Ki.

Assay [4] has as its target C-C chemokine receptor type 2 (Homo sapiens, UniProt P41597). It is filed as cell membranes, CHO-K1, Membrane. Particulars: cho-k1. Also: in other assays of this panel Not Active means under 50% inhibition at 10 µM.
A short description of assay [5]: DRUGMATRIX: GABAA, Chloride Channel, TBOB radioligand binding (ligand: [3H] TBOB). Format: cell membranes, Rattus norvegicus, Wistar, Cerebral cortex, Membrane. The following applies: Not Active = under 50% inhibition at 10 µM.
In the next assay the target is T3, Progesterone receptor (Bos taurus, UniProt Q690N0).
T3 sequence (Q690N0 whole entry): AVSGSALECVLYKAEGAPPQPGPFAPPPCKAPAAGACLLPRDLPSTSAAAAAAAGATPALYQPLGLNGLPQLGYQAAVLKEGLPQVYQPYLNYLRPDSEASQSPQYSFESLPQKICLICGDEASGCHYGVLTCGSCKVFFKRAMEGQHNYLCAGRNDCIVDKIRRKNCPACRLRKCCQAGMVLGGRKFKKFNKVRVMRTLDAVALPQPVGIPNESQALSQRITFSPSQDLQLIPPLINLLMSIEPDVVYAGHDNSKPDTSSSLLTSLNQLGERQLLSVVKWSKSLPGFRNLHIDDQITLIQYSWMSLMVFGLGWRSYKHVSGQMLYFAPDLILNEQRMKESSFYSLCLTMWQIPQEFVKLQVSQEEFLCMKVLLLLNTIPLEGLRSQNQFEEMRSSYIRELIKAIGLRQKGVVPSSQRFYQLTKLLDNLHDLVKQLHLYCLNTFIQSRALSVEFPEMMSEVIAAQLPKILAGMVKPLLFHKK
Put plainly: DRUGMATRIX: Progesterone radioligand binding (ligand: [3H] R-5020). Particulars: Not Active = under 50% inhibition at 10 µM. It is filed as tissue-based, Uterus.

Assay [6] in a line: DRUGMATRIX: Glutamate, Kainate radioligand binding (ligand: [3H] Kainic acid). It is filed as cell membranes, Rattus norvegicus, Wistar, Brain, Membrane. The following applies: Not Active = under 50% inhibition at 10 µM.

*1 amine or outer side, *2 acyl side, *3 side chain or, on linkers, in order; H or OH if unused. Where a SMILES comes first, the peptide text is derived from it. Bridges are numbered along the chain shown (N, C = ends). Roman numbers before positions name the chains, in order. [ ]: non-standard residue; d: D form. Actinocin(1to9) = Cc1c2oc3c(C)ccc(C(=O)[*:2])c3nc-2c(C(=O)[*:1])c(N)c1=O; NMeV = CN[C@H](C(=O)O)C(C)C; Sar = CNCC(=O)O

C-C chemokine receptor type 2, sequence (P41597 whole entry): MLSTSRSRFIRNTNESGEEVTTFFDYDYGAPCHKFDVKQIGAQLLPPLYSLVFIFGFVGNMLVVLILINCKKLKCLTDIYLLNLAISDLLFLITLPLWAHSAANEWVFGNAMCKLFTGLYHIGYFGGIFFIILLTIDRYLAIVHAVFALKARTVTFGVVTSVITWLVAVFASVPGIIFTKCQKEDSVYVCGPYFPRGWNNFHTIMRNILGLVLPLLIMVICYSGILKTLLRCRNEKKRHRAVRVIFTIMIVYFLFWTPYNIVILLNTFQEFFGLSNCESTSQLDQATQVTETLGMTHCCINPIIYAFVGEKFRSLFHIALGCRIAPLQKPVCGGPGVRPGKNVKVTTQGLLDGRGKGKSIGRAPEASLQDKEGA

Turning to `Cc1onc(-c2ccccc2Cl)c1C(=O)N[C@@H]1C(=O)N2[C@@H]1SC(C)(C)[C@@H]2C(=O)O` [CLOXACILLIN], the IC50 entry (in assay [1]; in assay [2]; in assay [3] (hek293); in assay [4]; in assay [5]; on Progesterone receptor) was “Not Active” in each case. Besides, the IC50 result in assay [6] is recorded as “Not Active”. In addition, the inhibition constant Ki result in assay [2], in assay [5] and in assay [6] was “Not Active” each time.

As for `CC1CC(OC(=O)C(O)c2ccccc2)CC(C)(C)C1` (centres undefined) [CYCLANDELATE], the IC50 result (in assay [1]; in assay [2]; in assay [3] (hek293); in assay [4]; in assay [5]; at Progesterone receptor) was “Not Active” in each case. Moreover, the IC50 result in assay [6] is listed as “Not Active”. For the same compound, the inhibitory constant (Ki) entry in assay [2], in assay [5] and in assay [6] was “Not Active” in each case.

With `Cc1c2oc3c(C)ccc(C(=O)N[C@@H]4C(=O)N[C@H](C(C)C)C(=O)N5CCC[C@H]5C(=O)N(C)CC(=O)N(C)[C@@H](C(C)C)C(=O)O[C@@H]4C)c3nc-2c(C(=O)N[C@@H]2C(=O)N[C@H](C(C)C)C(=O)N3CCC[C@H]3C(=O)N(C)CC(=O)N(C)[C@@H](C(C)C)C(=O)O[C@@H]2C)c(N)c1=O` [DACTINOMYCIN] (I: T[dV]P[Sar][NMeV] / II: T[dV]P[Sar][NMeV]; ester I:1-I:C, II:1-II:C; linker I:N-II:N via Actinocin(1to9)), the half-inhibitory concentration (IC50) entry (in assay [1]; in assay [2]; in assay [3] (hek293); in assay [4]; in assay [5]; at Progesterone receptor) was “Not Active” throughout. Besides, in assay [6], the IC50 result was “Not Active”. Moreover, the inhibition constant Ki result in assay [2], in assay [5] and in assay [6] was “Not Active” each time.

Take `Cc1c(O)c(=O)ccn1C` [DEFERIPRONE]: the IC50 entry (in assay [1]; in assay [2]; in assay [3] (hek293); in assay [4]; in assay [5]; on Progesterone receptor) was “Not Active” in each case. Also, the IC50 result in assay [6] is “Not Active”. Also, the inhibition constant (Ki) entry in assay [2], in assay [5] and in assay [6] was “Not Active” each time.

Consider `CNCCCN1c2ccccc2CCc2ccccc21` [DESIPRAMINE], for which the IC50 entry (in assay [1]; in assay [2]; in assay [3] (hek293); in assay [4]; in assay [5]; at Progesterone receptor) was “Not Active” throughout. Besides, the half-maximal inhibitory concentration (IC50) entry in assay [6] is “Not Active”. The Ki result in assay [2], in assay [5] and in assay [6] was “Not Active” each time.

As for `O=c1oc2ccccc2c(O)c1Cc1c(O)c2ccccc2oc1=O` [DICUMAROL], the IC50 result (in assay [1]; in assay [2]; in assay [3] (hek293); in assay [4]; in assay [5]; at Progesterone receptor) was “Not Active” throughout. The IC50 result in assay [6] is “Not Active”. Also, the Ki entry in assay [2], in assay [5] and in assay [6] was “Not Active” each time.

Take `C[C@H]1O[C@@H](O[C@H]2[C@@H](O)C[C@H](O[C@H]3[C@@H](O)C[C@H](O[C@H]4CC[C@@]5(C)[C@H](CC[C@@H]6[C@@H]5C[C@@H](O)[C@]5(C)[C@@H](C7=CC(=O)OC7)CC[C@]65O)C4)O[C@@H]3C)O[C@@H]2C)C[C@H](O)[C@@H]1O` [DIGOXIN]: the concentration for half-maximal inhibition (IC50) result (in assay [1]; in assay [2]; in assay [3] (hek293); in assay [4]; in assay [5]; at Progesterone receptor) was “Not Active” in each case. In addition, the half-maximal inhibitory concentration (IC50) entry in assay [6] was “Not Active”. Moreover, the inhibitory constant (Ki) entry in assay [2], in assay [5] and in assay [6] was “Not Active” throughout.

In the case of `CC(C)[C@@]1(NC(=O)[C@@H]2C[C@@H]3c4cccc5[nH]cc(c45)C[C@H]3N(C)C2)O[C@@]2(O)[C@@H]3CCCN3C(=O)[C@H](Cc3ccccc3)N2C1=O.CS(=O)(=O)O` [DIHYDROERGOCRISTINE MESYLATE], the IC50 result in assay [1] is “Not Active”; in assay [2], “Not Active”; in assay [3] (read-out: IC50), 7.37 nM; in assay [4], “Not Active”; in assay [5], “Not Active”; on Progesterone receptor, “Not Active”. Further, in assay [6], the concentration for half-maximal inhibition (IC50) result is given as “Not Active”. Also, the Ki result in assay [2] was “Not Active”; in assay [3], 3.62 nM; in assay [5], “Not Active”; in assay [6], “Not Active”.

As to `CC(=O)O[C@@]12CO[C@@H]1C[C@H](O)[C@@]1(C)C(=O)[C@H](O)C3=C(C)[C@@H](OC(=O)[C@H](O)[C@@H](NC(=O)OC(C)(C)C)c4ccccc4)C[C@@](O)([C@@H](OC(=O)c4ccccc4)[C@H]21)C3(C)C.O.O.O` [DOCETAXEL], the IC50 result (in assay [1]; in assay [2]; in assay [3] (hek293); in assay [4]; in assay [5]; on Progesterone receptor) was “Not Active” throughout. In addition, the IC50 entry in assay [6] is recorded as “Not Active”. The Ki entry in assay [2], in assay [5] and in assay [6] was “Not Active” in each case.

Consider `C[C@H]1c2cccc(O)c2C(=O)C2=C(O)[C@]3(O)C(=O)C(C(N)=O)=C(O)[C@@H](N(C)C)[C@@H]3[C@@H](O)[C@@H]21.O` [DOXYCYCLINE], for which the IC50 entry (in assay [1]; in assay [2]; in assay [3] (hek293); in assay [4]; in assay [5]; at Progesterone receptor) was “Not Active” throughout. Moreover, in assay [6], the half-inhibitory concentration (IC50) result is given as “Not Active”. Further, the Ki result in assay [2], in assay [5] and in assay [6] was “Not Active” in each case.

In the case of `O=C(CCCN1CC=C(n2c(=O)[nH]c3ccccc32)CC1)c1ccc(F)cc1` [DROPERIDOL], the half-inhibitory concentration (IC50) result was “Not Active” in assay [1]; “Not Active” in assay [2]; 83 nM in assay [3] (read-out: IC50); “Not Active” in assay [4]; “Not Active” in assay [5]; “Not Active” at Progesterone receptor. For the same compound, the IC50 result in assay [6] was “Not Active”. Also, the Ki result is “Not Active” in assay [2], 41 nM in assay [3], “Not Active” in assay [5] and “Not Active” in assay [6].

Regarding `CC(C)[C@H]1C(=O)N2CCC[C@H]2[C@]2(O)O[C@](NC(=O)[C@@H]3C=C4c5cccc6[nH]cc(c56)C[C@H]4N(C)C3)(C(C)C)C(=O)N12` [ERGOCORNINE], the concentration for half-maximal inhibition (IC50) result is “Not Active” in assay [1]; “Not Active” in assay [2]; 18 nM in assay [3] (read-out: IC50); “Not Active” in assay [4]; “Not Active” in assay [5]; “Not Active” on Progesterone receptor. Also, the IC50 entry in assay [6] was “Not Active”. The Ki entry in assay [2] is “Not Active”; in assay [3] it was 8.75 nM; in assay [5] it was “Not Active”; in assay [6] it was “Not Active”.

With `C[C@]12CC[C@@H]3c4ccc(O)cc4CC[C@H]3[C@@H]1CCC2=O` [ESTRONE], the concentration for half-maximal inhibition (IC50) entry is “Not Active” in assay [1]; “Not Active” in assay [2]; “Not Active” in assay [3] (hek293); “Not Active” in assay [4]; “Not Active” in assay [5]; 16100 nM on Progesterone receptor (read-out: IC50). The IC50 result in assay [6] is reported as “Not Active”. Moreover, the Ki entry in assay [2] is “Not Active”; in assay [5] it was “Not Active”; on Progesterone receptor (read-out: Ki), 2100 nM; in assay [6], “Not Active”.
